Source: ChEMBL document CHEMBL3632595, “Constituents of the seeds of Cassia tora with inhibitory activity on soluble expoxide hydrolease” (Bioorg Med Chem Lett, 2015)

Legend:
[1] = target: T1, Bifunctional epoxide hydrolase 2 (Homo sapiens, UniProt P34913); assay: Reversible-uncompetitive inhibition of sEH (unknown origin) by Lineweaver-Burk plot
T1 sequence (P34913 whole entry): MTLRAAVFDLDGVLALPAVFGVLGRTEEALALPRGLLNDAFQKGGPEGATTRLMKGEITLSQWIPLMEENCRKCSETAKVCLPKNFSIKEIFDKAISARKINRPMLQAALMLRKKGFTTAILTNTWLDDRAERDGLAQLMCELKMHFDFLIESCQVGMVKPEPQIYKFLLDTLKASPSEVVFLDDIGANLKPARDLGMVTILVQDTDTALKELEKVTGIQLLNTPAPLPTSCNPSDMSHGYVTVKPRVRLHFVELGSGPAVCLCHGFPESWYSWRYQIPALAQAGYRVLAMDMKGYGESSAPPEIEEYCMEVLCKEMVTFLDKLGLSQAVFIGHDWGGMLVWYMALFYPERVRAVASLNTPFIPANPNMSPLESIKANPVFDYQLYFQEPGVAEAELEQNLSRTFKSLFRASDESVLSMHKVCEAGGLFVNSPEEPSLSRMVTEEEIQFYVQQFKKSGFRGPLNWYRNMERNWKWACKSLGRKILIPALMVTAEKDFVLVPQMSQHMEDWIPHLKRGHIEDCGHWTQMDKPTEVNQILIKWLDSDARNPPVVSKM

[2] = target: T1, Bifunctional epoxide hydrolase 2; assay: Inhibition of sEH (unknown origin) assessed as 6-methoxy-2-naphthaldehyde formation by fluorometry assay using 40 uM cyano-(6-methoxy-naphthalen-2-yl)-methyl ester as substrate
[3] = target: T2, Bifunctional epoxide hydrolase 2 (Homo sapiens) (UniProt P34913); conditions: at 50 µM
T2 sequence (whole entry): T1 sequence (P34913 whole entry)
Description: Inhibition of sEH (unknown origin) assessed as 6-methoxy-2-naphthaldehyde formation at 50 uM by fluorometry assay using 40 uM cyano-(6-methoxy-naphthalen-2-yl)-methyl ester as substrate

Structure (SMILES)	Ki [1] [µM]	IC50 [2] [µM]	inhibition [3] [%]
COc1cc(O[C@@H]2O[C@H](CO)[C@@H](O)[C@H](O)[C@H]2O)c2c(OC)c(C(C)=O)c(O[C@H]3OC[C@@](O)(CO)[C@@H]3O)cc2c1	0.6	2.2	91.6
COc1c(O)c(C)cc2c1C(=O)c1c(O)cccc1C2=O	–	–	2.6
COc1ccc2c(c1O)C(=O)c1c(cc(C)c(O)c1OC)C2=O	–	35.7	54.2
Cc1cc(O)c2c(c1)C(=O)c1cc(O)cc(O)c1C2=O [EMODIN]	–	36.4	56.4
COc1cc2c(c(OC)c1OC)C(=O)c1c(cc(C)c(O)c1OC)C2=O [CHRYSOOBTUSIN]	–	26.3	59.8
COc1c(O)cc2c(c1O)C(=O)c1c(cc(C)c(O)c1OC)C2=O	–	–	0
COc1cc(O[C@@H]2O[C@H](CO[C@@H]3O[C@H](CO)[C@@H](O)[C@H](O)[C@H]3O)[C@@H](O)[C@H](O)[C@H]2O)c2c(c1)C(=O)c1cc(C)cc(O)c1C2=O	–	40.6	51
COc1cc(O)c2c(c1)C(=O)c1cc(C)cc(O)c1C2=O	–	–	27.1
COc1c(O[C@@H]2O[C@H](CO)[C@@H](O)[C@H](O)[C@H]2O)cc2c(c1O)C(=O)c1c(cc(C)c(O)c1OC)C2=O	–	33	57.7
COc1cc(O[C@@H]2O[C@H](CO[C@@H]3O[C@H](CO)[C@@H](O)[C@H](O)[C@H]3O)[C@@H](O)[C@H](O)[C@H]2O)c2c(O)c3c(=O)cc(C)oc3cc2c1	–	37.5	50.9
COc1cc(O[C@@H]2O[C@H](CO[C@@H]3O[C@H](CO)[C@@H](O)[C@H](O)[C@H]3O)[C@@H](O)[C@H](O)[C@H]2O)c2c(O)c3c(=O)oc(C)cc3cc2c1	–	20	67.6
COc1cc2c(c(O)c1OC)C(=O)c1c(cc(C)c(O)c1OC)C2=O	–	26.4	55.1
COc1cc2c(c(OC)c1OC)C(=O)c1c(cc(C)c(O[C@@H]3O[C@H](CO)[C@@H](O)[C@H](O)[C@H]3O)c1OC)C2=O	–	–	28.6
COc1cc(O[C@@H]2O[C@H](CO)[C@@H](O)[C@H](O)[C@H]2O)c2c(O)c3c(=O)cc(C)oc3cc2c1	–	–	38.1
Cc1cc(O)c2c(c1)C(=O)c1cccc(O)c1C2=O	–	–	38.1
COc1c(O[C@@H]2O[C@H](CO)[C@@H](O)[C@H](O)[C@H]2O)c(C)cc2c1C(=O)c1c(O)cccc1C2=O	–	24.3	50.6
